Experimental data published in article PMC5979327 (International Journal of Molecular Sciences, 2018).
One block for each compound: values may come before it.

Columns and labels:
[1] = target: T1, guinea pig H3 receptor (jejunum) (Cavia porcellus, UniProt Q9JI35); experiment: H3 antagonistic activity against H3 agonist-induced inhibition of the electrically evoked contraction of the guinea pig jejunum; format: biochemical; settings: vs (R)-α-methylhistamine, Schild plot, dihydrogenoxolate salts, read-out: pA2 (sem) (converted)
T1 construct: Whole jejunum segments (2 cm) were prepared and mounted between two platinum electrodes; from tissue; host or cells: guinea pig jejunum (small intestine)
T1 sequence (Q9JI35 whole entry): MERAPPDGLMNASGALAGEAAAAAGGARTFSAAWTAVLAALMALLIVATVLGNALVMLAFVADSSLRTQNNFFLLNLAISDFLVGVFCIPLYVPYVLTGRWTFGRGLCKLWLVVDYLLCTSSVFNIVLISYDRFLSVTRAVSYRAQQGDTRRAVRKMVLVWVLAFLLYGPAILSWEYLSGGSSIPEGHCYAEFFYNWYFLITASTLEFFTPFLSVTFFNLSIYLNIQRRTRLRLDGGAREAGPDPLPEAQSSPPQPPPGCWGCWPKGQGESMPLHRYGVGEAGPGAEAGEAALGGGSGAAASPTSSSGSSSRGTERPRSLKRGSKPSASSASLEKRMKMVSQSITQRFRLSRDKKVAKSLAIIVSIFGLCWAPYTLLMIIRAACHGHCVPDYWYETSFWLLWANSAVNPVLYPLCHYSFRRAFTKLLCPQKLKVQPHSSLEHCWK
Protocol: All newly synthesized compounds were converted into their dihydrogenoxolates salts and in vitro evaluated as H3 receptor antagonists against H3 agonist-induced inhibition of the electrically evoked contraction of the guinea pig jejunum.
In the first step, all the obtained compounds were tested for their H3 antagonistic effects in vitro, following standard methods, using the electrically contracting guinea pig jejunum.
Male guinea pigs weighing 300–400 g were sacrificed, and a portion of the small intestine, 20–50 cm proximal to the ileocaecal valve (jejunum), was removed and placed in Krebs buffer (composition (mM) NaCl 118; KCl 5.6; MgSO4 1.18; CaCl2 2.5; NaH2PO4 1.28; NaHCO3 25; glucose 5.5; indomethacin (1 × 10^ℒ6mol/L)). Whole jejunum segments (2 cm) were prepared and mounted between two platinum electrodes (4 mm apart) in 20 mL Krebs buffer, continuously gassed with 95% O2:5% CO2, and maintained at 37 °C. the contractions were recorded isotonically under 1.0 g tension with a Hugo Sachs Hebel–Messvorsatz (Tl-2)/HF-modem (Hugo Sachs Elektronik, Hugstetten, Germany) connected to a pen recorder. The equilibration lasted for one hour with washings every 10 min. The muscle segments were then stimulated at a maximum between 15 and 20 Volts, continuously at a frequency of 0.1 Hz for a duration of 0.5 msec, with rectangular wave electrical pulses, delivered by a Grass Stimulator S-88 (Grass Instruments Co., Quincy, MA, USA). […] The antagonists were preincubated for 20 min during the stimulation, before the preparation were challenged with (R)-α-methylhistamine. Antagonist potency was determined by the construction of a Schild plot, using three different concentrations of the antagonist. The potency of an antagonist is expressed by its pA2 value. The pA2 values were compared with those indicating the potency of thioperamide.

[2] = target: T2, rat histamine H3 receptor (rH3R) (Rattus norvegicus, UniProt Q9QYN8); experiment: [3H]-Nα-methylhistamine binding (saturation and displacement) to rat H3R in HEK-293T cell membranes
T2 construct: expressed in transfected cells; host or cells: HEK293T, transient PEI transfection with pcDNA3-rH3R; crude membranes
T2 sequence (Q9QYN8 whole entry): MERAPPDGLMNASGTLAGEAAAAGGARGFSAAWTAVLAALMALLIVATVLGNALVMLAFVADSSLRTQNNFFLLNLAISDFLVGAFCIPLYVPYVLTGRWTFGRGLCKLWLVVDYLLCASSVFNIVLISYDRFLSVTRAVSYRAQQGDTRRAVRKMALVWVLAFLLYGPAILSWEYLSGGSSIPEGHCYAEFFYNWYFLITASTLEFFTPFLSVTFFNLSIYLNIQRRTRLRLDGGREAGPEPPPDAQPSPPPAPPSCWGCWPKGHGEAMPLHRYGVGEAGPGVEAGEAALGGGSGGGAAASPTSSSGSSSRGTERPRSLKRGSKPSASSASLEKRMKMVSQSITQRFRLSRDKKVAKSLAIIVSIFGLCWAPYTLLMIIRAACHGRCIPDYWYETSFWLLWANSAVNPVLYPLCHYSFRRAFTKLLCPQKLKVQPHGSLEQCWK

[3] = target: T3, human histamine H3 receptor (hH3R) (Homo sapiens, UniProt Q9Y5N1); experiment: biochemical; format: binding
T3 construct: expressed in transfected cells; host or cells: HEK293T, transient PEI transfection with pcDNA3.1-hH3R; crude membranes
T3 sequence (Q9Y5N1 whole entry): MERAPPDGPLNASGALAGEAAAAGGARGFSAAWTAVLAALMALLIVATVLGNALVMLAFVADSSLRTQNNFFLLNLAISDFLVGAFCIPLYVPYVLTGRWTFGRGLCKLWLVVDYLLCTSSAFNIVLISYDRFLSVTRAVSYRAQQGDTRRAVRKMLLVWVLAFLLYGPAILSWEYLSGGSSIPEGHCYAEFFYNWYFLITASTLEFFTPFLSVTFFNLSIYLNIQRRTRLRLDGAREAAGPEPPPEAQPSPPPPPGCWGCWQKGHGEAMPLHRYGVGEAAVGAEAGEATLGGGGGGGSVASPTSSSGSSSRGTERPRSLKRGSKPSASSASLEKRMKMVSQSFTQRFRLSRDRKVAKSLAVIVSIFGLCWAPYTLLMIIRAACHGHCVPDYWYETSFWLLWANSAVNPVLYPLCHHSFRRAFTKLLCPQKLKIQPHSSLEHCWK

rats = experiment: Feeding behavior of rats after repeated subcutaneous administration; format: in vivo, rat; settings: 3 mg/kg s.c. for 5 days; for amount of consumed food (food intake): versus pre-treatment period
Text: Finally, compound ADS-003 (1a) was subjected to an in vivo evaluation of its impact on brain neurotransmitter systems. This assessment concerned: • - The effects of the compound on the feeding behavior of rats after its repeated peripheral administration. […] The latter was accomplished by postmortem analyses of the brain tissues of the treated rats.
All animal experimental procedures were in accordance with EU directives and local ethical regulations. Male Wistar rats (260–300 g) were used. The animals were maintained under standard laboratory conditions (liquid and food available ad libitum, 12 h light–dark cycle). For feeding behavior examination, the rats were placed individually in metabolic cages (TecniplastGazzada, Buguggiate, Italy) and kept there throughout the entire test. Pharmacotherapy was preceded by a control period of 4 days aimed to determine the basal feed and water consumptions as well as urine excretion. The rats (n = 8 per group) were randomly given the H3R antagonists ADS-003 or Ciproxifan, the latter serving as a reference compound [40]. Control rats were treated with an equivalent volume of physiological saline. The compounds, dissolved in distilled water with DMSO (7%, v/v), were administered subcutaneously at a dose of 3 mg/kg of body mass for 5 consecutive days, always during the morning hours, following the record of feeding parameters. The dose of ADS-003 had been determined on the basis of a thorough characterization in vitro. The recorded volumes of consumed food are expressed in g or ml per 100 g of body weight or in ml per 24 h, respectively. The final results are given as means, with SEM calculated for each 24 h period, computed from a four-day (before treatment) or a five-day (treatment) monitoring

[4] = system: cerebral amine neurotransmitter concentrations; experiment: Post-mortem brain tissue concentration of histamine, noradrenaline, dopamine and serotonin; format: in vivo, rat; settings: rats, 3 mg/kg s.c. for 5 days; for histamine concentration in the hypothalamus: not statistically significant
Protocol: (§1) Following the behavioral study, the rats were sacrificed, and their brains were collected. From each brain, the cerebral cortex and hypothalamus were quickly dissected according to the Glowinski and Iversen method. The samples were immediately frozen in liquid nitrogen and kept at −70 °C until assayed.
The amine concentrations were expressed as ng/g wet weight (HA) or nmol/g wet weight (DA, NA, 5-HT).

MAO-A = experiment: Post-mortem cerebral MAO-A activity of treated rats (radioassay); format: in vivo, rat; settings: cerebral cortex, s.c. 3 mg/kg/daily for 5 days, means ± SEM
Protocol: as §1
(§2) Monoamine oxidase A and B (EC 1.4.3.4; MAO A and B) activities were estimated in cerebral homogenates with radioassays, using serotonin (fine conc. 200 μM) and β-phenylethylamine (fine conc. 20 μM), as well as specific inhibitors—clorgyline and deprenyl (0.3 μM each), respectively.
(§3) The enzyme activities are expressed as pmol/min/mg protein. Protein concentration was analyzed according to Lowry’s method.

MAO-B = experiment: Post-mortem cerebral MAO-B activity of treated rats (radioassay); format: in vivo, rat; settings: cerebral cortex, s.c. 3 mg/kg/daily for 5 days, means ± SEM
Protocol: as §1, §2, §3

[5] = system: histamine N-methyltransferase (HNMT); experiment: Post-mortem cerebral histamine N-methyltransferase activity of treated rats (radioenzymatic); format: in vivo, rat; settings: s.c. 3 mg/kg/daily for 5 days, means ± SEM; for HMNT activity, CTX: cerebral cortex; for HMNT activity, HTH: hypothalamus
H1-receptor = target: T4, H1-receptor (Cavia porcellus, UniProt P31389); experiment: H1 antagonistic effects in vitro, guinea pig ileum, histamine as competing agonist; format: biochemical; settings: read-out: pA2 (H1 antagonistic activity) (converted)
T4 construct: from tissue; host or cells: guinea pig ileum
T4 sequence (P31389 whole entry): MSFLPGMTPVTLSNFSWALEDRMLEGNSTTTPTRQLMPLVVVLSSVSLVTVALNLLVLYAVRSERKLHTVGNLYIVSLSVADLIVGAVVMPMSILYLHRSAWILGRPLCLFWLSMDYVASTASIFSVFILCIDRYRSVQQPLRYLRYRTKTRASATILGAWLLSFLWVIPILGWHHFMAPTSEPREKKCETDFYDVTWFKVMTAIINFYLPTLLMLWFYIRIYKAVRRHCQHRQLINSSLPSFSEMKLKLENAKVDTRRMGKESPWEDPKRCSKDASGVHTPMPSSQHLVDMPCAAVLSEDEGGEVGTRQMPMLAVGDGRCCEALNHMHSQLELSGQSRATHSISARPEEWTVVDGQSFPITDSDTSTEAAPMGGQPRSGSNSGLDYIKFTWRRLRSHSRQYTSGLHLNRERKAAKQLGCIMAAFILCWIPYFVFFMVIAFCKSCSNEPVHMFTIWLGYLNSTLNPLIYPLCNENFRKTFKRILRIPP

[6] = compared with Ciproxifan; cited from earlier work

Kb [1]: 479 nM
SMILES: CCCN(C)CCCCCOCCCN(C)CCc1cc2ccccc2o1 [2b, 5-{3-{[2-(Benzofuran-2-yl)ethyl](methyl)amino}propoxy}-N-methyl-N-propylpentan-1-amine]

Kb [1]: 427 nM
SMILES: CCCN(C)CCCCCOCCCN(C)CCCc1cc2ccccc2o1 [2c, 5-{3-{[3-(Benzofuran-2-yl)propyl](methyl)amino}propoxy}-N-methyl-N-propylpentan-1-amine]

Kb [1]: 191 nM
SMILES: CCCN(C)CCCCCOCCCN(C)CCc1ccccc1 [2e, N-Methyl-5-{3-[methyl(phenethyl)amino]propoxy}-N-propylpentan-1-amine]

Kb [1]: 162 nM
SMILES: CCCN(C)CCCCCOCCCN(C)CCCc1ccccc1 [2f, N-Methyl-5-(3-(methyl(3-phenylpropyl)amino)propoxy)-N-propylpentan-1-amine]

Further lines, the compound ahead of its results:

SMILES: CCCN(C)CCCCCOC1CCN(Cc2cc3ccccc3o2)CC1 [1a]
Kb [1]: 5.37 nM | Ki [2]: 12.6 nM | Ki [3]: 251 nM | crossing of the blood–brain barrier (suggested by the food intake results) (rats): crosses the BBB | amount of consumed food (food intake) (rats): statistically significant reduction | histamine levels in the cerebral cortex [4]: no changes | noradrenaline levels in the cerebral cortex [4]: enhanced | histamine concentration in the hypothalamus [4]: tendency to increase | MAO-A activity, CTX (MAO-A): 1536 ± 50 pmol/min/mg Protein | MAO-B activity, CTX (MAO-B): 1065 ± 48 pmol/min/mg Protein | HMNT activity, CTX [5]: 44.41 ± 1.06 pmol/min/mg Protein | HMNT activity, HTH [5]: 41.09 ± 0.80 pmol/min/mg Protein

SMILES: O=C(c1ccc(OCCCc2cnc[nH]2)cc1)C1CC1 [Ciproxifan, reference compound]
amount of consumed food (food intake) (rats): statistically significant reduction | histamine levels in the cerebral cortex [4]: no changes | noradrenaline levels in the cerebral cortex [4]: enhanced | histamine concentration in the hypothalamus [4]: tendency to increase | MAO-A activity, CTX (MAO-A): 1654 ± 31 pmol/min/mg Protein | MAO-B activity, CTX (MAO-B): 1049 ± 56 pmol/min/mg Protein | HMNT activity, CTX [5]: 46.90 ± 3.59 pmol/min/mg Protein | HMNT activity, HTH [5]: 51.76 ± 5.67 pmol/min/mg Protein

SMILES: CCCN(C)CCCCCOC1CCN(CCCc2ccccc2)CC1 [1f, N-Methyl-5-{[1-(3-phenylpropyl)piperidin-4-yl]oxy}-N-propylpentan-1-amine]
Kb [1]: 30.9 nM | Kb (H1-receptor): > 100000 nM

SMILES: CCCN(C)CCCCCOC1CCN(CCc2cc3ccccc3o2)CC1 [1b, 5-{{1-[2-(1-Benzofuran-2-yl)ethyl]piperidin-4-yl}oxy}-N-methyl-N-propylpentan-1-amine]
Kb [1]: 55 nM | Kb (H1-receptor): > 100000 nM

SMILES: CNCCc1cnc[nH]1 [[^3H]-N^α-MH, [^3H]-N^α-methylhistamine, reference compound]
Kd ([2]; rH3R, HEK-293T membranes): 2.72 ± 0.34 nM | Kd ([3]; read-out: KD (saturation binding)): 0.9 ± 0.08 nM

SMILES: CCCN(C)CCCCCOC1CCN(CCc2ccccc2)CC1 [1e, N-Methyl-5-[(1-phenethylpiperidin-4-yl)oxy]-N-propylpentan-1-amine]
Kb [1]: 214 nM

SMILES: CCCN(C)CCCCCOC1CCN(CCCc2cc3ccccc3o2)CC1 [1c, 5-{{1-[3-(1-Benzofuran-2-yl)propyl]piperidin-4-yl}oxy}-N-methyl-N-propylpentan-1-amine]
Kb [1]: 77.6 nM

SMILES: S=C(NC1CCCCC1)N1CCC(c2cnc[nH]2)CC1 [Thioperamide]
bioavailability / brain penetration [6]: lower bioavailability
